Measured values taken from patent US20100204249A1, “SECRETORY PHOSPHOLIPASE A2 (SPLA2) INHIBITOR AND NIACIN DRUG COMPOSITIONS AND METHODS FOR TREATING CARDIOVASCULAR DISEASE AND DYSLIPIDEMIA” (priority 2009, published 2010).

Assays:
sPLA2 = details: cited from earlier work
[1] = system: human subjects with stable CAD; test: Change in TG levels at eight weeks, A-002 and/or niacin drugs, subjects with stable CAD; details: for Baseline Mean TG: before trial period; for Baseline Mean TG / Week 8 Mean TG: stable CAD; for Difference versus placebo (TG % change) / % change versus baseline (TG) / Week 8 Mean TG: week 8; for % change versus baseline (TG): ANCOVA subject-specific percent change from baseline; for Change from baseline (mean TG): week 8 versus baseline
Description: (§1) 46 subjects from the above once-a-day and twice-a-day A-002 studies were identified as receiving niacin drugs before and during the trial period. 45 of these 46 subjects were also receiving one or more statins before and during the trial period. The niacin drugs included niacin, nicotinic acid, acipimox, ERN (Niaspan®), Niaspan® in combination with lovastatin (Advicor®), and/or Niaspan® in combination with simvastatin (Simcor®). Of the 46 niacin subjects, twelve were concomitantly administered placebo rather than A-002 (i.e., niacin drug only), four were administered 100 mg of A-002 daily, five were administered 200 mg of A-002 daily, five were administered 250 mg of A-002 daily, thirteen were administered 500 mg of A-002 daily, and seven were administered 1000 mg of A-002 daily.
(§2) The change from baseline HDL and TG levels at eight weeks was determined for each of the subjects receiving niacin drugs, and the percentage increase or decrease in these levels was determined using an analysis of covariance (ANCOVA) model that calculated subject-specific percent change from baseline.

[2] = system: human subjects with stable CAD; test: Change in HDL levels at eight weeks, A-002 and/or niacin drugs, subjects with stable CAD; details: for Baseline Mean HDL: before trial period; for Baseline Mean HDL / Week 8 Mean HDL: stable CAD; for Difference versus placebo (HDL % change) / % change versus baseline (HDL) / Week 8 Mean HDL: week 8; for % change versus baseline (HDL): ANCOVA subject-specific percent change from baseline; for Change from baseline (mean HDL): week 8 versus baseline
Description: as §1, §2

[3] = cited from earlier work
[4] = system: human subjects with stable CAD; details: oral, once or twice a day, total daily 100-1000 mg, all dosages tested; 361 subjects; cited from earlier work
[5] = eight weeks, magnitude of decrease

SMILES | type of sPLA2 inhibition (sPLA2) | Baseline Mean TG [1] [mg/dL] | increase in TG versus placebo ([1]; eight weeks, magnitude of increase) [%] | Difference versus placebo (TG % change) [1] | % change versus baseline (TG) [1] | Week 8 Mean TG [1] [mg/dL] | Change from baseline (mean TG) [1] | Baseline Mean HDL [2] [mg/dL] | decrease in HDL versus baseline [2, 5] [%] | decrease in HDL versus placebo [2, 5] [%] | Difference versus placebo (HDL % change) [2] | % change versus baseline (HDL) [2] [%] | Week 8 Mean HDL [2] [mg/dL] | Change from baseline (mean HDL) [2] [mg/dL] | terminal half-life (t1/2) ([3]; in vivo) | absorption and hydrolysis to the active A-001 molecule ([3]; prodrug) | serum LDL, LDL particle, small LDL particle, oxidized LDL, total cholesterol, ApoB, TG, sPLA2, CRP, and IL-6 levels [4]
CCc1c(C(=O)C(N)=O)c2c(OCC(=O)O)cccc2n1Cc1ccccc1 [A-001] | competitive inhibitor | – | – | – | – | – | – | – | – | – | – | – | – | – | – | – | –
O=C(O)c1cccnc1 [Niacin, pyridine-3-carboxylic acid] | – | 129.25 | 3.4 | +3.4% | +9.7% | 133.42 | +4.17 mg/dl | 50.67 | 6.2 | 3.9 | −3.9% | −6.2 | 46.75 | -3.92 | – | – | –
CCc1c(C(=O)C(N)=O)c2c(OCC(=O)OC)cccc2n1Cc1ccccc1 [A-002, [[3-(2-Amino-1,2-dioxoethyl)-2-ethyl-1-(phenylmethyl)-1H-indol-4-yl]oxy]acetic acid methyl ester] | – | 165.83 | – | −2.6% | −3.7% | 159.04 | -6.79 mg/dL | 47.80 | 2.0 | – | +0.3% | −2.0 | 46.28 | -1.52 | approximately ten | rapidly absorbed and hydrolyzed | decrease
